Target: T1, S-ribosylhomocysteine lyase (Vibrio harveyi, UniProt B0LUE4)
T1 sequence (B0LUE4 whole entry): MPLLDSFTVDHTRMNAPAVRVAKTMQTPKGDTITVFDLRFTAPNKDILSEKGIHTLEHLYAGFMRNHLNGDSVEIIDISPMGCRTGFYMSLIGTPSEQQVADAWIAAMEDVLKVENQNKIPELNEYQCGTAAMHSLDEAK
Experiment: modulation of V. harveyi AI-2 signalling – luminescence, dose retest, Vibrio harveyi, confirmation (AID 2724)

**Q.** `C=Cn1c(C(=O)O)ccc1-c1ccc(CC)cc1` was tested. Which EC50 did it give?
**A.** The EC50 was 2.07 µM.

**Q.** For `COc1cc(NC(=O)CN2C(=O)NC(c3ccccc3)(c3ccccc3)C2=O)cc(OC)c1` [MLS001176525], which EC50 is on record?
**A.** The EC50 was 1.57 µM.

**Q.** Which EC50 does the source give for `CCc1ccc(S(=O)(=O)Nc2ccc(Br)cn2)cc1` [MLS001211346] here?
**A.** Its EC50 is 3.64 µM.

**Q.** Which EC50 does the source give for `CCCc1ccc(S(=O)(=O)N(C)S(=O)(=O)c2ccc(F)cc2)cc1` [N-(4-fluorophenyl)sulfonyl-N-methyl-4-propylbenzenesulfonamide] here?
**A.** The EC50 was 1.62 µM.

**Q.** With `CN(C)S(=O)(=O)c1ccc(NC(=S)NC(=O)Cc2ccccc2)cc1` [N-[[4-(dimethylsulfamoyl)phenyl]carbamothioyl]-2-phenyl-ethanamide] as the molecule, how does the EC50 read?
**A.** Its EC50 is greater than 160 µM.

**Q.** With `Cc1cccc(NS(=O)(=O)c2ccc(Oc3ccccc3)cc2)n1` [SMR000071466] as the molecule, how does the EC50 read?
**A.** Its EC50 is 2.56 µM.

**Q.** For `Cn1cnc(S(=O)(=O)Nc2ccc(OC(F)(F)F)cc2)c1` [SMR000314513], which EC50 is on record?
**A.** The EC50 was 4.39 µM.

Source: BindingDB's records for doi:10.7270/Q2Z036M0 (Broad Institute, 2010)
